Data on twelve molecules can be found in ChEMBL document CHEMBL1201862, “PubChem BioAssay data set” (2004).

What all share (assay): growth of human tumour cells (NCI), 48 h
Test [1] has as its system UO-31.
For test [2], the system named is LOX IMVI.
Test [3] relates to SR.
The subject of test [4] is SF-295.
Test [5] relates to SF-539.
Test [6] has as its system SNB-19.
Test [7] has as its system OVCAR-5.
For test [8], the system named is KM12.
Test [9] deals with HCT-15.
Test [10] relates to NCI-H460.
The test system of test [11] is ACHN.
Test [12] has as its system K562.
Test [13] deals with EKVX.
The test system of test [14] is HOP-92.
Test [15] deals with RPMI-8226.
Test [16] relates to HT-29.
Test [17] has as its system IGROV-1.
Test [18] has as its system MDA-MB-231.
The subject of test [19] is MCF7.

SMILES strings stand for the structures.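 1) Cells in 96-well plates. 2) Compound, 48 h, 5 concentrations. 3) Linear interpolation between surrounding doses. 4) Unreached endpoint = highest concentration. GI50: concentration for 50% inhibition of growth.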 Activity calls are given as the source filed them. Cut-off read from the data, not from the text of the source: active = GI50 up to about 1.1 µM and inactive = higher. Bounds are passed on as bounds.

Turning to `O=C1C2=C(CCCC2)Nc2cccc3ncn1c23`, the GI50 in test [1], in [2], in test [3], in test [4], in test [5] and in test [6] was > 100 µM (inactive) in each case. For the same molecule, the GI50 is > 100 µM (inactive) in test [7]; > 100 µM (inactive) in test [8]; above 100 µM in test [9]; > 100 µM (inactive) in [10]; > 100 µM (inactive) in test [11]; > 100 µM (inactive) in [12]. The GI50 in test [13], in [14] and in test [15] was > 100 µM (inactive) each time.
On to `Cc1c(Cl)ccc2c1NC(=O)C2(O)C1Cc2ccccc2C1=O` (configuration not stated), for which the GI50 in test [1] is 92.9 µM (inactive); in test [2], > 100 µM (inactive); in test [3], 27.9 µM (inactive); in test [4], > 100 µM (inactive); in test [5], > 100 µM (inactive); in test [6], > 100 µM (inactive). The GI50 in test [16] is > 100 µM (inactive); in [7] it was > 100 µM (inactive); in test [8] it was > 100 µM (inactive); in test [9] it was above 100 µM; in [10], > 100 µM (inactive); in test [11], > 100 µM (inactive). In addition, the GI50 was 62.1 µM (inactive) in test [12]; > 100 µM (inactive) in [17]; > 100 µM (inactive) in [13]; > 100 µM (inactive) in test [14]; 42.5 µM (inactive) in test [15].
For the molecule `CN(c1ccccc1)c1cc2ccccc2nn1`, the GI50 was 29.3 µM (inactive) in test [1]; 84.5 µM (inactive) in test [2]; > 100 µM (inactive) in [3]; 67.9 µM (inactive) in test [4]; > 100 µM (inactive) in test [5]; > 100 µM (inactive) in test [6]. For the same molecule, the GI50 in test [16] is > 100 µM (inactive); in [7], > 100 µM (inactive); in [8], > 100 µM (inactive); in test [9] it was above 100 µM; in test [10], > 100 µM (inactive); in test [11], 74 µM (inactive). The GI50 is 89.7 µM (inactive) in test [12]; > 100 µM (inactive) in [17]; 65.8 µM (inactive) in [13]; > 100 µM (inactive) in test [14]; 70 µM (inactive) in [15].
`COc1ccc2c3c(n(Cc4ccccc4)c(=O)c2c1)-c1cc(OC)c(OC)cc1C3C` (configuration not stated): the GI50 was 22.2 µM (inactive) in test [1]; 14.3 µM (inactive) in [2]; 5.12 µM (inactive) in test [3]; 11.6 µM (inactive) in test [4]; 7.52 µM (inactive) in test [5]; 21.7 µM (inactive) in test [6]. In addition, the GI50 was 25.7 µM (inactive) in test [16]; > 28.4 µM (inactive) in test [7]; 23.3 µM (inactive) in [8]; 28.1 µM in test [9]; 4.71 µM (inactive) in [10]; 11.5 µM (inactive) in [11]. Further, the GI50 in test [12] was 9.89 µM (inactive); in [17], 37.6 µM (inactive); in test [13], 10.6 µM (inactive); in test [14], 14.4 µM (inactive); in test [15] it was 14.5 µM (inactive).
Regarding `COc1ccc2[nH]c3c(O)nncc3c2c1`, the GI50 in test [1], in [2], in test [3], in test [4], in test [5] and in test [6] was > 100 µM (inactive) each time. For the same molecule, the GI50 in [16] is > 100 µM (inactive); in [7] it was > 100 µM (inactive); in [8], > 100 µM (inactive); in test [9], above 100 µM; in [10] it was > 100 µM (inactive); in [11], > 100 µM (inactive). Also, the GI50 in test [12] was > 100 µM (inactive); in [17], > 100 µM (inactive); in test [13], 8.45 µM (inactive); in test [14], 35.1 µM (inactive); in test [15] it was > 100 µM (inactive).
With `O=C(NCCCCCCNC(=O)c1cccc2ccccc12)c1cccc2ccccc12`, the GI50 in [1] was 31.5 µM (inactive); in [2], 14.2 µM (inactive); in test [3], > 100 µM (inactive); in test [4], 1.93 µM (inactive); in [5], 11.8 µM (inactive); in test [16] it was > 100 µM (inactive). Further, the GI50 in test [7] is > 100 µM (inactive); in test [8], > 100 µM (inactive); in test [9] it was above 100 µM; in [10] it was 42.5 µM (inactive); in test [11] it was 31.4 µM (inactive); in test [12], > 100 µM (inactive). Moreover, the GI50 in test [17] was 32.9 µM (inactive); in [13] it was 20.5 µM (inactive); in test [14], 7.96 µM (inactive); in test [15] it was > 100 µM (inactive).
Regarding `Cc1ccccc1NC(=O)CC(=O)n1nc(-c2ccccc2)c(/N=N/c2ccc([N+](=O)[O-])cc2)c1-c1ccccc1`, the GI50 in [1] was 7.03 µM (inactive); in [2], 20.6 µM (inactive); in [3] it was 25.1 µM (inactive); in test [4], 17.4 µM (inactive); in test [5], 19.9 µM (inactive); in test [6] it was 25.6 µM (inactive). For the same molecule, the GI50 was 8.34 µM (inactive) in test [16]; 32 µM (inactive) in [7]; 16.7 µM (inactive) in test [8]; 31.5 µM (inactive) in [10]; 11.2 µM (inactive) in test [11]; 12.3 µM (inactive) in [12]. Besides, the GI50 in test [17] is 28.1 µM (inactive); in test [13], 20.2 µM (inactive); in test [14] it was 11.4 µM (inactive); in test [15], 19.2 µM (inactive).
In the case of `COC(=O)C(=O)C(CC(=O)Nc1ccc(C)cc1)C(=O)OC` (configuration not stated), the GI50 in test [1], in test [2], in test [3], in test [4], in [5] and in test [6] was > 100 µM (inactive) in each case. Also, the GI50 in [16] is > 100 µM (inactive); in test [7] it was > 100 µM (inactive); in test [8], > 100 µM (inactive); in [9], above 100 µM; in test [10], > 100 µM (inactive); in test [11], > 100 µM (inactive). The GI50 in test [12], in test [17], in test [13], in test [14] and in test [15] was > 100 µM (inactive) throughout.
For `CC(C)C1COC(c2cccc(C3=N[C@@H](C(C)C)CO3)n2)=N1` (some centres not stated), the GI50 in test [1] is 98.6 µM (inactive); in test [2], > 100 µM (inactive); in test [3], > 100 µM (inactive); in test [4], > 100 µM (inactive); in test [5], > 100 µM (inactive); in test [6], > 100 µM (inactive). The GI50 in test [16] was > 100 µM (inactive); in [7], > 100 µM (inactive); in test [8], > 100 µM (inactive); in [9] it was above 100 µM; in [10], > 100 µM (inactive); in test [11], > 100 µM (inactive). The GI50 in [12], in test [17], in [13], in test [14] and in [15] was > 100 µM (inactive) in each case.
As to `CC(=O)Nc1cc(C(=O)Nc2cc(C(=O)Nc3cc(C(=O)Nc4cc(C(=O)Nc5cc(C(=O)NCCC(=O)NCCCN(C)C)n(C)c5)n(C)c4)n(C)c3)n(C)c2)n(C)c1`, the GI50 in [1] was > 100 µM (inactive); in test [2] it was 37.4 µM (inactive); in [4], > 100 µM (inactive); in [5], 44.5 µM (inactive); in [6] it was > 100 µM (inactive); in [16], > 100 µM (inactive). Further, the GI50 is > 100 µM (inactive) in test [7]; 23.6 µM (inactive) in test [8]; above 100 µM in [9]; > 100 µM (inactive) in test [10]; > 100 µM (inactive) in test [11]; 58.7 µM (inactive) in test [12]. Moreover, the GI50 in test [18] is > 100 µM (inactive); in [17] it was > 100 µM (inactive); in test [13], > 100 µM (inactive); in test [19], 28.2 µM (inactive); in test [14] it was 33.5 µM (inactive); in test [15], > 100 µM (inactive).
As for `CC(C)(C)C(=O)C(CC(=O)c1ccccc1)C(=O)C(C)(C)C`, the GI50 in [1], in [2], in test [4], in test [5], in [6] and in test [16] was > 100 µM (inactive) each time. Also, the GI50 was > 100 µM (inactive) in [7]; > 100 µM (inactive) in test [8]; above 100 µM in test [9]; > 100 µM (inactive) in test [10]; > 100 µM (inactive) in test [11]; > 100 µM (inactive) in test [12]. The GI50 in [18] is > 100 µM (inactive); in test [17] it was > 100 µM (inactive); in test [13] it was > 100 µM (inactive); in [19], > 100 µM (inactive); in [14], 44.7 µM (inactive); in test [15] it was > 100 µM (inactive).
In the case of `C=CCCCN1CCCC(C)C1=S` (configuration not stated), the GI50 in [1], in test [2], in test [3], in test [4], in test [5] and in [6] was > 100 µM (inactive) in each case. In addition, the GI50 in test [16] is > 100 µM (inactive); in [7], > 100 µM (inactive); in [8] it was > 100 µM (inactive); in test [9], above 100 µM; in test [10], > 100 µM (inactive); in test [11], > 100 µM (inactive). The GI50 in test [12], in test [17], in test [13], in [14] and in [15] was > 100 µM (inactive) in each case.
